PubChem BioAssay (NCI)
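Five concentrations, 48 hours, 96-well plates. The concentration for full growth arrest is given as TGI.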 Where a SMILES comes first, the peptide text is derived from it. Bridges are numbered along the chain shown (N, C = ends). [ ]: non-standard residue; d: D form. The star is where a group is joined. ξ: configuration not given here. Cbz = O=C(OCc1ccccc1)*; ξD = NC(CC(=O)O)C(=O)O; Ac3c = NC1(C(=O)O)CC1; Boc = CC(C)(C)OC(=O)*; OtBu = CC(C)(C)O*

Legend:
Test in all cases: NCI anticancer screen, dose series, 48 h
M14 melanoma = system: M14 melanoma
MCF7 breast = system: MCF7 breast
NCI-H23 lung = system: NCI-H23 lung
NCI/ADR-RES ovarian = system: NCI/ADR-RES ovarian
OVCAR-4 ovarian = system: OVCAR-4 ovarian
PC-3 prostate = system: PC-3 prostate
RPMI-8226 leukemia = system: RPMI-8226 leukemia
RXF 393 renal = system: RXF 393 renal
SNB-75 CNS = system: SNB-75 CNS
U251 CNS = system: U251 CNS

Row | SMILES | TGI (M14 melanoma) | TGI (MCF7 breast) | TGI (NCI-H23 lung) | TGI (NCI/ADR-RES ovarian) | TGI (OVCAR-4 ovarian) | TGI (PC-3 prostate) | TGI (RPMI-8226 leukemia) | TGI (RXF 393 renal) | TGI (SNB-75 CNS) | TGI (U251 CNS)
1 | Cc1ccc(N=C2SC(c3ccc(C)cc3)(c3ccc(C)cc3)c3ccccc32)cc1 | > 100 µM | > 100 µM | > 100 µM | > 100 µM | > 100 µM | > 100 µM | > 100 µM | > 100 µM | > 100 µM | > 100 µM
2 | N#CC1(c2ccccc2)CCN(C2(c3ccccc3)CCCCC2)CC1 | > 100 µM | > 100 µM | > 100 µM | > 100 µM | > 100 µM | > 100 µM | > 100 µM | > 100 µM | > 100 µM | > 100 µM
3 | COc1ccc2c(-c3ccc(OCCN(C)C)cc3)c(Oc3ccc(Cl)cc3)c(=O)oc2c1 | 3.23 µM | 6.12 µM | > 54.2 µM | > 62.5 µM | > 95.7 µM | 19.7 µM | 14.8 µM | 12.4 µM | 27.6 µM | 14.5 µM
4 | CC(C)(C)c1cc(C(=O)/C=C/c2ccn[nH]2)cc(C(C)(C)C)c1O | 3.51 µM | 4.78 µM | 7.38 µM | 16.1 µM | 18 µM | 5.18 µM | 3.37 µM | 3.19 µM | 9.61 µM | 3.11 µM
5 | COC(=O)C1(NC(=O)C(CC(=O)OC(C)(C)C)NC(=O)OC(C)(C)C)CC1 (stereo not drawn) (Boc-[ξD](OtBu)-[Ac3c]-OMe) | > 100 µM | > 100 µM | > 100 µM | > 100 µM | > 100 µM | > 100 µM | > 100 µM | > 100 µM | > 100 µM | > 100 µM
6 | O=C1CCC2(O)C3Cc4ccc(Oc5nnnn5-c5ccccc5)c5c4C2(CCN3CC2CC2)C1O5 (stereo not drawn) | 33.5 µM | > 100 µM | > 100 µM | > 100 µM | > 100 µM | > 100 µM | > 100 µM | > 100 µM | > 100 µM | > 100 µM
7 | CCCCCn1c(=O)c2c(=O)[nH][nH]c2c2ccccc21 | – | > 100 µM | > 100 µM | > 100 µM | > 100 µM | > 100 µM | > 100 µM | > 100 µM | > 100 µM | > 100 µM
8 | Oc1ccc(Cl)cc1C1=N/C(=N\C/N=C2\N=C(c3cc(Cl)ccc3O)CC(c3ccccc3)N2)NC(c2ccccc2)C1 (stereo not drawn) | > 100 µM | > 100 µM | > 100 µM | > 100 µM | > 100 µM | > 100 µM | > 100 µM | > 100 µM | > 100 µM | > 100 µM
9 | COC(=O)C1CCCCNC(=O)CCC(NC(=O)OCc2ccccc2)C(=O)N1 (stereo not drawn) (Cbz-Glu-Lys-OMe; lactam 1-2; configuration not given here) | > 100 µM | > 100 µM | > 100 µM | > 100 µM | > 100 µM | > 100 µM | > 100 µM | > 100 µM | > 100 µM | > 100 µM
10 | C/C=C/[C@H]1O[C@@](O)([C@@H](C)[C@H](O)[C@H](C)[C@H]2OC(=O)/C(OC)=C/C(C)=C/[C@@H](C)[C@@H](O)[C@@H](CC)[C@@H](O)[C@H](C)C/C(C)=C/C=C/[C@@H]2OC)C[C@H](OC2CC(O)C(OC(N)=O)C(C)O2)[C@@H]1C (stereo partly drawn) | 0.0387 µM | 16.9 µM | 26.7 µM | 26.8 µM | 20.8 µM | 15.1 µM | 0.205 µM | 37 µM | 21.9 µM | 17.4 µM
11 | CC(C)=Nn1cnc(C(=N)C#N)c1N | > 100 µM | > 100 µM | > 100 µM | > 100 µM | > 100 µM | > 100 µM | > 100 µM | > 100 µM | > 100 µM | > 100 µM
12 | S=C(N/N=C\c1ccccn1)N(Cc1ccccn1)Cc1ccccn1 | 43.7 µM | > 100 µM | 14.5 µM | 5.2 µM | 18.7 µM | 32.9 µM | > 38.8 µM | 32.2 µM | 20.2 µM | > 40 µM
13 | CC1(C)CCCCCCCCCC(C)(CCCCCCCCCCCCO)C1=O (stereo not drawn) | – | 30.5 µM | 33.7 µM | 32.6 µM | 32.7 µM | 32.6 µM | 42.2 µM | 33.3 µM | 29.7 µM | 33 µM
14 | N=C(N)SCCCN | 14.2 µM | > 59.9 µM | 41.2 µM | > 62.1 µM | > 30.9 µM | 54.1 µM | > 68.9 µM | 26 µM | > 100 µM | 24.6 µM
15 | CCNc1ncnc2c1nnn2CC | > 100 µM | > 100 µM | > 100 µM | > 100 µM | > 100 µM | > 100 µM | > 100 µM | > 100 µM | > 100 µM | > 100 µM
16 | c1csc(-c2csc(-c3ccsc3)c2)c1 | > 100 µM | > 71.4 µM | > 100 µM | > 100 µM | > 100 µM | > 100 µM | > 100 µM | > 100 µM | > 100 µM | > 100 µM
